Assay results taken from patent publication US6586420B1, “Quinolinecarboxylic acid derivative or its salt” (Wakunaga Pharmaceutical Co., Ltd., priority 1999, dated 2003).
Converted amounts (≈) assume the structure as drawn.

Legend:
[1] = Test on photostability (UV spectra after UVA exposure of solution); type: physicochemical; details: solution in 0.08% NaOH diluted 100-fold with PBS(-); UVA (black light) up to 20 minutes; UV spectra 190 to 400 nm
Description: (2) Test on Photostability
The test on photostability was made in accordance with the following method.
With 0.08% NaOH, 1 mg/mL of the test compound was prepared. The resulting solution was diluted 100-fold with PBS(−). Into the wells of a 24-well plate, 1.5 ml portions of the diluted solution were poured, respectively. Just after the solution was exposed to UVA under an UV light (black light, product of Toshiba Corporation) for 0, 2, 5, 10 and 20 minutes, UV spectra within a range of 190 to 400 nm were measured (“UV-240”, product of Shimadzu Corporation).

female ICR mouse = experiment: Test on phototoxicity (ear erythema after UV exposure); type: in vivo; details: 40 mg/kg/10 mL intravenous, UV 320 to 400 nm for 4 hours; for Phototoxicity average score (ears): 0 point no abnormality to 3 points heavy erythema or edema
Description: (2) Test on Phototoxicity
The phototoxicity was tested in accordance with the following method.
After intravenous administration (40 mg/kg/10 mL) of each of the test compounds to a female ICR mouse (5-6 week old), the mouse was exposed to ultraviolet rays (320 to 400 nm, 1.8 mW/cm^2/sec) for 4 hours.
no abnormality (0 point); slight erythema (1 point); medium erythema (2 points); and heavy erythema or edema (3 points)

S. epidermidis IFO12293 = experiment: Test on antibacterial action (MIC, standard method of Japan Society of Chemotherapy); type: cell-based; details: for MIC: Staphylococcus epidermidis, read-out: minimum growth inhibitory concentration (MIC)
Description: (§1) (1) Test on Antibacterial Action
(§2) In accordance with the standard method established by Japan Society of Chemotherapy (CHEMOTHERAPY, 29(1),76(1981)), the minimum growth inhibitory concentration (MIC: μg/mL) was measured.

MRSA W200 = experiment: as above; type: cell-based; details: for MIC: Staphylococcus aureus, read-out: minimum growth inhibitory concentration (MIC)
Description: as §1, §2

K. peumoniae KC-1 = experiment: as above; type: cell-based; details: for MIC: read-out: minimum growth inhibitory concentration (MIC)
Description: as §1, §2

S. aureus 209P = experiment: as above; type: cell-based; details: for MIC: Staphylococcus aureus, read-out: minimum growth inhibitory concentration (MIC)
Description: as §1, §2

P. aeruginosa IFO3445 = experiment: as above; type: cell-based; details: for MIC: Pseudomonas aeruginosa, read-out: minimum growth inhibitory concentration (MIC)
Description: as §1, §2

E. coli NIHJ-JC2 = experiment: as above; type: cell-based; details: for MIC: Escherichia coli, NIHJJC2, read-out: minimum growth inhibitory concentration (MIC)
Description: as §1, §2

S. aureus Smith = experiment: as above; type: cell-based; details: for MIC: Staphylococcus aureus, read-out: minimum growth inhibitory concentration (MIC)
Description: as §1, §2

B. subtilis ATCC6633 = experiment: as above; type: cell-based; details: for MIC: Bacillus subtilis, read-out: minimum growth inhibitory concentration (MIC)
Description: as §1, §2

| Structure (SMILES) | Phototoxicity frequency (female ICR mouse; 0 hour after exposure) | Phototoxicity average score (ears) (female ICR mouse; 0 hour after exposure) | Phototoxicity frequency (female ICR mouse; 24 hours after exposure) | Phototoxicity average score (ears) (female ICR mouse; 24 hours after exposure) | Phototoxicity frequency (female ICR mouse; 48 hours after exposure) | Phototoxicity average score (ears) (female ICR mouse; 48 hours after exposure) | MIC (S. epidermidis IFO12293) [µg/mL] | MIC (MRSA W200) [µg/mL] | MIC (K. peumoniae KC-1) [µg/mL] | MIC (S. aureus 209P) [µg/mL] | MIC (P. aeruginosa IFO3445) [µg/mL] | MIC (E. coli NIHJ-JC2) [µg/mL] | MIC (S. aureus Smith) [µg/mL] | MIC (B. subtilis ATCC6633) [µg/mL] | minimum growth inhibitory concentration (MIC) (S. epidermidis IFO12293) [µg/mL] | minimum growth inhibitory concentration (MIC) (MRSA W200) [µg/mL] | minimum growth inhibitory concentration (MIC) (K. peumoniae KC-1) [µg/mL] | minimum growth inhibitory concentration (MIC) (S. aureus 209P) [ng/mL] | minimum growth inhibitory concentration (MIC) (P. aeruginosa IFO3445) [µg/mL] | minimum growth inhibitory concentration (MIC) (E. coli NIHJ-JC2) [µg/mL] | further results |
| --- | --- | --- | --- | --- | --- | --- | --- | --- | --- | --- | --- | --- | --- | --- | --- | --- | --- | --- | --- | --- | --- |
| Cc1c(N2CC(O)C2)c(F)cc2c(=O)c(C(=O)O)cn(-c3nc(N)c(F)cc3F)c12 [Compound 1, 1-(6-amino-3,5-difluoropyridin-2-yl)-6-fluoro-7-(3-hydroxyazetidin-1-yl)-8-methyl-1,4-dihydro-4-oxoquinoline-3-carboxylic acid] | 0/4 | 0 | 0/4 | 0 | 0/4 | 0 | 0.013 (≈ 0.0309 µM) | 0.013 (≈ 0.0309 µM) | 0.05 (≈ 0.119 µM) | 0.006 (≈ 0.0143 µM) | 0.39 (≈ 0.928 µM) | 0.05 (≈ 0.119 µM) | < 0.003 | 0.025 (≈ 0.0595 µM) |  |  |  |  |  |  | Photostability: decomposition by exposure to ultraviolet rays [1]: hardly decomposed |
| Nc1nc(-n2cc(C(=O)O)c(=O)c3cc(F)c(N4CC(O)C4)c(F)c32)c(F)cc1F [Comparative compound 2, 1-(6-amino-3,5-difluoropyridin-2-yl)-6,8-difluoro-7-(3-hydroxyzetidin-1-yl)-1,4-dihydro-4-oxoquinoline-3-carboxylic acid] | 0/4 | 0 | 0/4 | 0 | 0/4 | 0 |  |  |  |  |  |  |  |  | 0.050 | 0.025 | 0.10 | 13 | 0.39 | 0.10 | minimum growth inhibitory concentration (MIC) (S. aureus Smith): 6 ng/mL; minimum growth inhibitory concentration (MIC) (B. subtilis ATCC6633): 0.025 µg/mL |
| C[C@H]1COc2c(N3CCN(C)CC3)c(F)cc3c(=O)c(C(=O)O)cn1c23 [Levofloxacin, S-(−)-9-fluoro-2,3-dihydro-3-methyl-10-(4-methyl-1-piperazinyl)-7-oxo-7H-pyrido[1,2,3-de][1,4]-benzoxazine-6-carboxylic acid] |  |  |  |  |  |  | 0.39 (≈ 1.08 µM) | 0.39 (≈ 1.08 µM) | 0.05 (≈ 0.138 µM) | 0.2 (≈ 0.553 µM) | 0.78 (≈ 2.16 µM) | 0.05 (≈ 0.138 µM) | 0.1 (≈ 0.277 µM) | 0.1 (≈ 0.277 µM) |  |  |  |  |  |  |  |
| NC1CCN(c2nc3c(cc2F)c(=O)c(C(=O)O)cn3-c2ccc(F)cc2F)C1 (racemic) [Tosufloxacin, (±)-7-(3-amino-1-pyrrolidinyl)-6-fluoro-1-(2,4-difluorophenyl)-1,4-dihydro-4-oxo-1,8-naphthyridine-3-carboxylic acid] | 4/5 | 1.8 | 4/5 | 0.8 | 1/5 | 0.2 |  |  |  |  |  |  |  |  |  |  |  |  |  |  |  |
| Nc1nc(-n2cc(C(=O)O)c(=O)c3cc(F)c(N4CC(O)C4)c(Cl)c32)c(F)cc1F.OC1CNC1 [Comparative compound 1, 1-(6-amino-3,5-difluoropyridin-2-yl)-8-chloro-6-fluoro-7-(3-hydroxyazetidin-1-yl)-1,4-dihydro-4-oxoquinoline-3-carboxylic acid.3-hydroxyazetidine salt] | 0/4 | 0 | 0/4 | 0 | 0/4 | 0 |  |  |  |  |  |  |  |  | 0.013 | 0.006 | 0.05 | 6 | 0.39 | 0.05 | minimum growth inhibitory concentration (MIC) (S. aureus Smith): 3 ng/mL; minimum growth inhibitory concentration (MIC) (B. subtilis ATCC6633): 0.05 µg/mL |
| O=C(O)c1cn(C2CC2)c2cc(N3CCNCC3)c(F)cc2c1=O [Ciprofloxacin, 1-cyclopropyl-6-fluoro-7-(1-piperazinyl)-1,4-dihydro-4-oxoquinoline-3-carboxylic acid] |  |  |  |  |  |  | 0.78 (≈ 2.35 µM) | 0.78 (≈ 2.35 µM) | 0.025 (≈ 0.0754 µM) | 0.2 (≈ 0.604 µM) | 0.39 (≈ 1.18 µM) | 0.013 (≈ 0.0392 µM) | 0.2 (≈ 0.604 µM) | 0.05 (≈ 0.151 µM) |  |  |  |  |  |  |  |
